Literature values in publication PMC4358631 (Journal of Medicinal Chemistry, 2014).

Target: α3β4 nAChR (Rattus norvegicus, UniProt P04757+P12392)
Details: compounds bind to the central lumen of the receptor

Sequence of α3β4 nAChR (P04757 26-499): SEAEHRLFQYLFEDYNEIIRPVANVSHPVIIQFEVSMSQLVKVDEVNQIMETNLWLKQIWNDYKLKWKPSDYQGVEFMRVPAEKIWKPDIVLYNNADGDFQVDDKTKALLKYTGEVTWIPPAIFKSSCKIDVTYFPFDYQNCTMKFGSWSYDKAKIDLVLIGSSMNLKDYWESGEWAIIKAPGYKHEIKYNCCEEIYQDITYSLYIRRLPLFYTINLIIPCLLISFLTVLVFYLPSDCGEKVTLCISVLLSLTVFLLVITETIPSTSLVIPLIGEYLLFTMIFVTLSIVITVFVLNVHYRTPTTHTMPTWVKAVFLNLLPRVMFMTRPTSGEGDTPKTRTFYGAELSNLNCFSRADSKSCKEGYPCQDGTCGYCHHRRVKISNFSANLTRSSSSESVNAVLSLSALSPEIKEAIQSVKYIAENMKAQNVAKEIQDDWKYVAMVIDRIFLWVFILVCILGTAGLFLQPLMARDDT
Sequence of α3β4 nAChR (P12392 22-495 limits assumed): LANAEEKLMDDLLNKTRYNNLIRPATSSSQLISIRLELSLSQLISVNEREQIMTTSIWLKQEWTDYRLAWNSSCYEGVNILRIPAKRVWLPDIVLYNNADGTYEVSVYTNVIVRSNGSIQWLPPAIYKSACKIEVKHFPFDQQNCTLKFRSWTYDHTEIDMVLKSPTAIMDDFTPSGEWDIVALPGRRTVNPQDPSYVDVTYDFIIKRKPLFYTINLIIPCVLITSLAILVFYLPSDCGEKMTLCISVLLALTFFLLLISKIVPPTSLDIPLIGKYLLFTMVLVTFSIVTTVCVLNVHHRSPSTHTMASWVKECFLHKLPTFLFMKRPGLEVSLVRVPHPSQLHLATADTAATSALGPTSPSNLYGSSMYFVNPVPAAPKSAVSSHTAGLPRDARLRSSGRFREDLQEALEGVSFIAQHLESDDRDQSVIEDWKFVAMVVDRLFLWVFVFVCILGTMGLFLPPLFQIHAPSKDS

| SMILES | inhibition of [3H]epibatidine binding |
| --- | --- |
| COCC[C@H]1CC2CN3CCc4c([nH]c5ccccc45)[C@](C(=O)OC)(C2)[C@H]13 [18-MC, 18-methoxycoronaridine] | do not inhibit |
| CNC1(C)C2CCC(C2)C1(C)C (centres unmarked) [mecamylamine] | do not inhibit |
